Data as given in patent publication US20080213385A1, “Formulations for 7- (T-Butoxy) Iminomethyl Camptothecin” (priority 2005, published 2008).

Tests used:
[1] = In vitro dissolution rate testing (USP2 apparatus, paddle); assay type: physicochemical; conditions: 50 rpm, 37° C., 0.3% SDS in 1,000 mL water
Procedure: The dissolution rate testing was done using an USP2 apparatus, paddle, 50 rpm, 37° C., 0.3% SDS in 1,000 mL water, n=3. For dissolution rate testing, the aqueous suspensions were diluted 1:5 with water and filled into vials (0.5 mg drug substance/vial).

[2] = Particle size distribution by laser light scattering; assay type: physicochemical; conditions: after milling (unmilled for unmilled drug)
Procedure: The aqueous nano-milling was performed in a ball mill using yittrium […] zirconia beads (0.5-0.6 mm in 0). For all trials the batch size was approximately 70 g. Prior to milling the beads were conditioned with 1% stabilizer solution for 24 hours at 1,200 rpm (minimal speed, 80 mL solution for 160 mL beads), rinsed with demineralized water until conductivity reading was the same as that of the water, placed in a 150-200° C. oven until dry and cooled to room temperature before use. Milling was performed at 3,200 rpm and milling times as outlined in Table 1 were used. Before and after milling the aqueous suspensions were characterized with respect to particle size distribution, appearance (microscopic pictures and laser light scattering), and dissolution rate and assay/degradation.

CC[C@@]1(O)C(=O)OCc2c1cc1n(c2=O)Cc2c-1nc1ccccc1c2/C=N/OC(C)(C)C [Unmilled drug, 7-t-butoxyiminomethylcamptothecin]
Dissolution rate: % released, mean (n = 3), after 15 min ([1]; 0.5 mg drug substance/vial, 15 min): 3%
Dissolution rate: % released, mean (n = 3), after 30 min ([1]; 30 min): 5%
Dissolution rate: % released, mean (n = 3), after 60 min ([1]; 60 min): 15%
Dissolution rate: % released, mean (n = 3), after 120 min ([1]; 120 min): 31%
PSD (light scattering, after milling) x10 [2]: x10 = 2 μm
PSD (light scattering, after milling) x50 [2]: x50 = 9 μm
PSD (light scattering, after milling) x90 [2]: x90 = 35 μm
